Results taken from patent US20200022967A1, “Use of 2-carboxamide cycloamino urea derivatives in the treatment of EGFR dependent diseases or diseases that have acquired resistance to agents that target EGFR family members” (Novartis AG, priority 2010, published 2020).

How the values were obtained:
[1] = Body weight loss in HBCx-5 xenograft study (Example 5); settings: capecitabine single agent; significant and transient
Experimental: Experiments were performed in female HSD: athymic nude-Foxn1nu mice approximately 8-10 weeks of age and weighing approximately 19-25 grams. The mice were allowed to acclimate with access to food and water ad libitum for 6 days prior to the study. When body weight loss reaches 15% compared to the first day of treatment, DietGel® was provided to the animals.
The mice were divided into five groups each comprising ten mice. Treatments were initiated 34 days post-implantation of the HBCx-5 xenograft tumor. […] For xenograft implantation, the mice were anesthetized with 100 mg/kg ketamine hydrochloride and 10 mg/kg xylazine. Using asceptic technique, the mice were grafted in interscapular with 3 mm on 3 mm tumor fragment. […] Tumors were measured with calipers three times per week at the start of dosing. Tumors were calculated using the formula: =width^2×length/2. Tumor size and body weight were measured three times per week during the treatment period. The planned endpoints for the experiment were a treatment phase of six weeks and no follow-up phase.
Antitumor activity is expressed as T/C % (mean change of tumor volume of treated animals/mean change of tumor volume of control animals)×100. Tumor volume and relative body weight were used for statistical analysis. Group comparisons were performed using a Mann Whitney non parametric test between treated group and control group.

HBCx-5 xenograft tumor = test: HBCx-5 breast cancer xenograft, antitumor activity (Example 5); format: in vivo, mice; settings: capecitabine 40 mg/kg single agent p.o., five times per week, two cycles; p<0.001
Experimental: Compound A was suspended at mg/ml in 0.5% methylcellulose (Sigma Aldrich, St. Louis, Mo.). It was homogenized by stirring vortexing and sonication. The suspension was stored at 4° C. for 7 days protected from light. […] Stock solution at 21 mg/ml was diluted just before administration at 1 mg/ml with sterile water for injection. Capecitabine (Xeloda®, Roche) at […] was kept at 4° C. protected from light. Capecitabine pellets were crushed and suspended in NaCl 0.9%.
Dose was body weight adjusted at each injection.
Capecitabine was administered by oral gavage (p.o.) at […], five times per week for two weeks (i.e., five consecutive dosing days/week). After a one week rest, a second treatment cycle was performed.

NCI-N87 tumors = test: NCI-N87 xenograft in CB17 SCID mice, Compound A alone and with lapatinib (Example 6); format: in vivo; settings: for Median TTE: control 26.2, vs G1 ***; for Mean Tumor Volume (no. animals, n) Day 59: n=1
Experimental: The NCI-N87 cells were harvested with 5× trypsin. Eight days after tumor implantation (on Day 1 of the study), mice with an individual tumor volume of 88-196 mm^3 were sorted into 10 groups of ten mice with a group mean tumor volume of 143-149 mm^3.
Where applicable, data is presented as mean±SEM. Each animal was euthanized when its neoplasm reached the endpoint volume (1000 mm^3), or on the last day of the study (Day 59). Time to endpoint (TTE) is calculated by the equation: TTE=(log10(endpoint volume)−b)/m, where TTE is expressed in days, endpoint volume is in mm3, b is the intercept and m is the slope of the line obtained by linear regression of a log-transformed tumor growth data set. Treatment efficacy was determined from Tumor Growth Delay (TGD), which was defined as the increase in the median time to endpoint (TTE) for a treatment group compared to the control group (TGD=T−C), expressed in days, or as a percentage of the median TTE of the control group (% TGD=((T−C)/C)×100), wherein T=median TTE for a treatment group and C=median TTE for the designated control group.
Statistical and graphical analyses was performed with Prism 3.03 (GraphPad) for Windows. For all tests, the level of significance of differences was done using ANOVA, with Bartlett's test; and a post-hoc Dunnett's multiple comparison test compared the mean change for each drub-treated group to the mean for Group 1. Survival was analyzed by the Kaplan-Meier method. The logrank test was employed to analyze the significance of the difference between the overall survival experiences of two groups, based on time to endpoint (TTE) values. The two-tailed statistical analyses were conducted at P=0.05. Prism summarizes test results as not significant (ns) at P>0.05, significant (symbolized by “*”) at 0.01<P<0.05, very significant (symbolized by “**”) at 0.001<P<0.01, and extremely significant (symbolized by “***”) at P<0.001.

[2] = Body weight nadir and deaths in NCI-N87 lapatinib study (Example 6)
Experimental: Treatments started eight days post tumor cell implantation and lasted for 59 consecutive days or until tumor volume=1000 mm^3. […] For the b.i.d. dosing schedule, the first dose was given p.m. on Day 1 and last dose a.m. on Day 22. […] Body weights were recorded on Days 1-5, on each treatment day (except weekends), and twice weekly thereafter until end of the study.

[3] = Group 4 (10 animals): lapatinib 50 mg/kg p.o. b.i.d.
[4] = Group 4: lapatinib 50 mg/kg p.o. b.i.d.
[5] = Group 5 (10 animals): lapatinib 100 mg/kg p.o. once daily
[6] = Group 5: lapatinib 100 mg/kg p.o. once daily
[7] = Group 6 (9 animals): lapatinib 150 mg/kg p.o. once daily
[8] = Group 6: lapatinib 150 mg/kg p.o. once daily

## CCCCCOC(=O)Nc1nc(=O)n([C@@H]2O[C@H](C)[C@@H](O)[C@H]2O)cc1F [Capecitabine, reference compound]
[1]
  body weight loss: 9.1%
HBCx-5 xenograft tumor
  T/C: 9.03%

## CS(=O)(=O)CCNCc1ccc(-c2ccc3ncnc(Nc4ccc(OCc5cccc(F)c5)c(Cl)c4)c3c2)o1 [lapatinib]
NCI-N87 tumors; [3]
  Regressions CR: CR: 0
  Regressions PR: PR: 0,
NCI-N87 tumors; Group 4 (10 animals): lapatinib 50 mg/kg p.o. b.i.d. for 21 days
  Median TTE: 47.7 days
NCI-N87 tumors; [4]
  % TGD: 66%
  Mean Tumor Volume (no. animals, n) Day 59: 608 (1)
NCI-N87 tumors; [5]
  Regressions CR: CR: 0
  Regressions PR: PR: 0,
NCI-N87 tumors; [6]
  % TGD: 82%
  T-C: 16.4 days
  Mean Tumor Volume (no. animals, n) Day 59: 750 (1)
NCI-N87 tumors; [7]
  Regressions CR: CR: 0
  Regressions PR: PR: 1,
NCI-N87 tumors; Group 6 (9 animals): lapatinib 150 mg/kg p.o. once daily for 21 days
  Median TTE: 50.6 days
NCI-N87 tumors; [8]
  % TGD: 63%
  T-C: 24.4 days
[2]; [3]
  Deaths (TR/NTR): 0
[2]; [5]
  Deaths (TR/NTR): 0
[2]; [8]
  Deaths NTR = non-treatment related: NTR: 1
  Deaths TR = treatment-related: TR: 0
